Measured values reported in patent US20220202882A1, “EFFECT OF COMBINATION OF BIFIDOBACTERIUM AND BERBERINE ON PRE-DIABETES AND TYPE 2 DIABETES” (The Fourth Military Medical University, priority 2018, published 2022).
Structures can show the parent of a compound that is named as a salt.

System: pre-diabetic and type 2 diabetes mellitus patients
Test: Clinical trial: glycosylated hemoglobin (HbA1c)
Type: in vivo, human
Conditions: for Effect on glycosylated hemoglobin level (in words) / Post-treatment HbA1c - pre-treatment HbA1c, mean value / Post-treatment HbA1c <7.0% with no hypoglycemia, Yes-N (%) / Post-treatment HbA1c <7.0%, Yes-N (%): 16 weeks of treatment; for Effect on glycosylated hemoglobin level (in words): Kruskal-Wilcox test; for Post-treatment HbA1c, mean value: after 16 weeks of treatment; for Pre-treatment HbA1c, mean value: baseline before treatment
Experimental: From June 2015 to October 2018, a double-blind, randomized, and parallel-controlled trial, studying the effects of the combined use of Bifidobacterium and berberine on pre-diabetic and type 2 diabetes mellitus patients, was conducted in 10 research centers in Xi'an, Yan'an and Shangluo of Shaanxi province, etc., including the First Affiliated Hospital of the Fourth Military Medical University. The trial included an enrollment stage of 2 weeks and a treatment stage of 16 weeks. After passing the first visit 1 (see V1 in Table 1), the subjects entered the enrollment stage, i.e., 2 weeks of lifestyle intervention, followed by a re-screening (see V2 in Table 1). The subjects were subjected to a 16-week course of treatment after passing the screening. See Table 1 for the detailed screening parameters. After the enrollment stage, the baseline data of the 300 successfully enrolled subjects were collected. Meanwhile, the subjects started to receive lifestyle guidance, and were randomly divided into four groups for 16 weeks of treatments. 1) Bifidobacterium group: the subjects were administered with Bifidobacterium capsules (Livzon Pharmaceutical Group Inc., batch no.: 20141013), 0.35 g/capsule, each capsule containing 50,000,000 viable bacteria (Bifidobacterium adolescentis DM8504), 2 capsules/time, 2 times/day, plus berberine placebo tablets (Northeast Pharma Group Shenyang First Pharma Co., Ltd., Lot no.: 20150101, containing 80.2% microcrystalline cellulose, 9.4% pregelatinized starch, 6.4% sodium carboxymethyl starch, 1% magnesium stearate, and 3% copovidone), 0.1 g/tablet, 5 tablets/time, 2 times/day. 2) Berberine group: the subjects were administered with berberine tablets (Northeast Pharma Group Shenyang First Pharma Co., Ltd., Lot no.: 130917, each tablet weighted 0.165 g and contained 0.1 g active berberine ingredient (berberine hydrochloride), with the same excipients as the placebo tablets), 5 tablets/time, 2 times/day, plus Bifidobacterium placebo capsules (Livzon Pharmaceutical Group Inc., Lot no.: 141001, specifically containing 0.348 g spray-dried lactose, and 0.002 g magnesium stearate), 0.35 g/capsule, 2 capsules/time, 2 times/day. 3) Combination Group: the subjects were administered with Bifidobacterium capsules, 0.35 g/capsule, each capsule containing 50,000,000 viable bacteria (B. adolescentis DM8504), 2 capsules/time, 2 times/day, plus berberine tablets, 0.1 g/tablet, each tablet containing 0.1 g active berberine ingredient (berberine hydrochloride), 5 tablets/time, 2 times/day. 4) Control group: the subjects were administered with Bifidobacteria placebo capsules, 0.35 g/capsule, 2 capsules/time, 2 times/day, plus berberine placebo tablets, 0.1 g/tablet, 5 tablets/time, 2 times/day. Bifidobacterium capsules were taken after meals and berberine tablets were taken before meals. Before blood collection, the subjects were kept still for 5 min. For serum insulin assays, 5 ml of whole blood was collected at fasting, and 30 min and 2 h post glucose intake, and then subjected to centrifugation […]. The obtained serum was collected in the cryogenic vials. For the glycosylated hemoglobin (HbA1c) test, 2 ml of whole blood was collected and placed in EDTA-containing tubes. For the GLP-1 and glucagon measurements, 5 ml of whole blood was collected in vacutainers containing EDTA and aprotinin at fasting, and 30 min and 2 h post meals, subjected to centrifugation, and the obtained serum was collected in cryogenic vials and stored at −20° C. Soybean-sized stool sample was placed in a dry and sterile collection tube, and sent to the detection center within 24 h for cryopreservation. […]

Row | Compound | Effect on glycosylated hemoglobin level (in words) | Post-treatment HbA1c - pre-treatment HbA1c, mean value (FAS) | Post-treatment HbA1c <7.0% with no hypoglycemia, Yes-N (%) (FAS) | Post-treatment HbA1c <7.0%, Yes-N (%) (FAS) | Post-treatment HbA1c, mean value (FAS) | Pre-treatment HbA1c, mean value (FAS) | Post-treatment HbA1c <7.0% with no hypoglycemia, Yes-N (%) (PPS) | Post-treatment HbA1c <7.0%, Yes-N (%) (PPS)
1 | COc1ccc2cc3[n+](cc2c1OC)CCc1cc2c(cc1-3)OCO2 [Berberine, berberine hydrochloride] | not significantly different from that of the combined use of berberine and Bifidobacterium | −0.1170% | 40(81.63) N (%) | 48(97.96) N (%) | 6.0800% | 6.1900% | 28(75.68) N (%) | 36(97.30) N (%)
2 | Bifidobacterium | no glycosylated hemoglobin lowing effect | −0.0545% | 76(76.00) N (%) | 88(88.00) N (%) | 6.1500% | 6.1900% | 61(73.49) N (%) | 71(85.54) N (%)
